Experimental data as given in patent US8399214B2 (Evonik Degussa GmbH, priority 2005, dated 2013).
“And” between values parts separate entries of the source, which are not always exact repeats. Equal values may be shown once. Read-outs that look alike come from different tables or passages of the source.

Legend:
[1] = test system: C. glutamicum OM101C (ΔmetF, ΔmetB); format: cell-based; conditions: XAD4, 24 hours at 30° C.
Procedure: (§1) To each test tube 100 μl of a sterile suspension of XAD4 in water (50% v/v) was added.

[2] = test system: C. glutamicum OM246C (ΔmetE, ΔmetH); format: cell-based; conditions: XAD4, 24 hours at 30° C.
Procedure: as §1

C. glutamicum M2014 [3] = experiment: Shake flask study in molasses medium with XAD4, amino acid production with DMDS; format: cell-based; conditions: strain 2014, 80 μl DMDS (0.4% v/v), XAD4, 30° C.
Procedure: (§2) Samples were taken from the medium and assayed for amino acid content. […] (AGILENT). A pre-column derivatization of the sample with ortho-phthalaldehyde allowed the quantification of produced amino acids after separation on a Hypersil AA-column (AGILENT).
(§3) A shake flask experiment was performed where OM246C was compared to M2014. […] Thus, the production of methionine occurs from the conversion of O-acetyl-homoserine directly to methionine, bypassing homocysteine.

C. glutamicum OM246C = experiment: as above; format: cell-based; conditions: 80 μl DMDS (0.4% v/v), XAD4, 30° C.
Procedure: as §2, §3

[4] = test system: C. glutamicum OM246C (ΔmetH, ΔmetE); conditions: for Optical densities at 600 nm: OM246C, 24 hours at 30° C.
Text: (§4) Other possible delivery systems include synthetic oils, organic solvents, chloro-carbons, fluoro-carbons, or chloro-fluoro-carbons.

[5] = test system: E. coli RY714B (metE::Tn10, ΔmetH); experiment: Growth on methionine free agar with DMDS in a centre well; format: cell-based; conditions: 50 microliters DMDS in well, 30° C.
Procedure: (§5) The selection was for resistance to kanamycin sulfate at 25 mg/L on rich medium […] agar).

[6] = test system: E. coli CGSC 3592 (metF64); experiment: as above; format: cell-based; conditions: 50 microliters DMDS in well, 30° C.
Procedure: as §5

[7] = test system: C. glutamicum OM63 (ΔmetF); format: cell-based; conditions: 36 hours at 30° C.
Text: M2014 was transformed with plasmid pOM86 (FIG. 9) (SEQ ID NO:8) to yield a “Campbell in” strain. The “Campbell in” strain was then “Cambelled out” to yield a “Campbell out” strain named OM63.

OM101 (ΔmetB,ΔmetF) = experiment: Lawn growth on methionine-free agar plates with liquid or gaseous DMDS; format: cell-based, C. glutamicum; conditions: for killing zone: 48-60 hours
Procedure: Control plates received the lawn of cells, but no DMDS. The plates were placed together in a sealed polypropylene plastic box that was slightly bigger than the stack of plates and incubated at 30° C. for 48-60 hours. […] Normally, when a required nutrient is placed in the middle of a lawn that is auxotrophic for the nutrient, a gradient of growth is seen, with the most rapid growth occurring closest to the nutrient.
The plates were incubated at 30° C. enclosed in an airtight plastic box. […] This could be accomplished by evaporating or boiling DMDS and pumping the DMDS vapor into the fermentation vessel, or by bubbling air or oxygen through liquid DMDS on its route to the fermentation vessel.

[8] = test system: C. glutamicum OM101 (ΔmetF, ΔmetB); conditions: DMDS 0.2%, XAD4, 60 hours at 30° C.
Procedure: (§7) A test tube experiment was performed with M2014 derivatives that contain different combinations of deletions of metY, metB, and metF. […] The inoculum was approximately 5×10^3 cells per tube. Cells were grown at 30° C. in a platform shaker for 60 hours, and cell densities were measured at OD600.

C. glutamicum M2014 [9] = experiment: Test tube growth in methionine-free medium with mineral oil as DMDS delivery system; conditions: for Optical densities at 600 nm: 24 hours at 30° C.
Text: as §4

C. glutamicum M2014 [10] = experiment: Test tube growth in methionine-free medium with Amberlite XAD4 as DMDS delivery system
Procedure: (§6) To this end, test tube experiments using 5 ml of medium were performed on OM63 and M2014.
as §1

[11] = test system: C. glutamicum OM63 (ΔmetF)
Procedure: as §6, §1

[12] = test system: C. glutamicum OM246C (ΔmetH, ΔmetE); format: cell-based; conditions: 24 hours at 30° C.
Text: as §4

[13] = test system: C. glutamicum OM158 (ΔmetF, ΔmetY); conditions: DMDS 0.2%, XAD4, 60 hours at 30° C.
Procedure: as §7

C. glutamicum M2014 [14] = experiment: Test tube growth in methionine-free medium with canola oil as DMDS delivery system; format: cell-based; conditions: MF + Canola Oil + 0.2% DMDS, 24 hours at 30° C.
Text: as §4

CSSC [DMDS, dimethyl disulfide]
Optical densities at 600 nm ([1]; DMDS 0.1%): 2.5 and 2.7 | Optical densities at 600 nm ([1]; DMDS 0.2%): 3.1 and 3.9 | Optical densities at 600 nm ([1]; DMDS 0.3%): 1.6 and 0.8 | Optical densities at 600 nm ([1]; DMDS 0.4%): 0.05 and 0.03 | Optical densities at 600 nm ([1]; DMDS 0.5%): 0.02 and 0.01 | Optical densities at 600 nm ([2]; DMDS 0.1%): 4.3 and 4.5 | Optical densities at 600 nm ([2]; DMDS 0.2%): 4.2 and 3.8 | Optical densities at 600 nm ([2]; DMDS 0.3%): 3.3 and 3.6 | Optical densities at 600 nm ([2]; DMDS 0.4%): 3.6 and 3.2 | Optical densities at 600 nm ([2]; DMDS 0.5%): 3.1 and 2.4 | Gly + Hse (C. glutamicum M2014 [3]): 1.0 g/L and 1.4 g/L | Ile (C. glutamicum M2014 [3]): 0.0 g/L | Lys (C. glutamicum M2014 [3]): 2.5 g/L | OD600 (C. glutamicum M2014 [3]): 38 and 30 | O—Ac-hse (C. glutamicum M2014 [3]): 4.3 g/L and 3.6 g/L | Gly + Hse (C. glutamicum OM246C): 1.7 g/L and 1.3 g/L | Ile (C. glutamicum OM246C): 0.0 g/L | Lys (C. glutamicum OM246C): 3.2 g/L and 3.4 g/L | OD600 (C. glutamicum OM246C): 32 and 35 | O—Ac-hse (C. glutamicum OM246C): 4.6 g/L and 4.3 g/L | maximum amount of DMDS that allowed cell growth ([4]; DMDS in mineral oil, strain printed as OM63): 0.4% | Optical densities at 600 nm ([4]; MF + Mineral Oil + 0.2% DMDS): 1.1 and 1.6 | Optical densities at 600 nm ([4]; MF + Mineral Oil + 0.4% DMDS): 1.2 and 1.5 | Optical densities at 600 nm ([4]; MF + Mineral Oil + 0.8% DMDS): 0.0 | Optical densities at 600 nm ([4]; MF + Mineral Oil + 1.2% DMDS): 0.0 | growth on methionine free agar with DMDS ([5]; RY714B transformed with empty vector pCLIK): neither strain transformed with empty vector pCLIK grew | growth on methionine free agar with DMDS ([5]; RY714B transformed with pH309 or pH357 (metY)): grew on the plates | growth on methionine free agar with DMDS ([6]; CGSC 3592 transformed with empty vector pCLIK): neither strain transformed with empty vector pCLIK grew | growth on methionine free agar with DMDS ([6]; CGSC 3592 transformed with pH309 or pH357 (metY)): grew on the plates | Optical densities at 600 nm ([7]; MF + 0.02% DMDS): 5.4 | Optical densities at 600 nm ([7]; MF + 0.04% DMDS): 5.9 | Optical densities at 600 nm ([7]; MF + 0.06% DMDS): 5.2 | Optical densities at 600 nm ([7]; MF + 0.08% DMDS): 0.2 | Optical densities at 600 nm ([7]; MF + 0.1% DMDS): 0.0 | growth of OM101 lawn (OM101 (ΔmetB,ΔmetF); 50 μl liquid DMDS in polypropylene cap, reaches cells only through gaseous state, 30° C., two days): complete bacterial lawn | killing zone (OM101 (ΔmetB,ΔmetF); 50 μl liquid DMDS placed into a well in the agar, 30° C.): no killing zone | killing zone (OM101 (ΔmetB,ΔmetF); 50 μl liquid DMDS spotted directly on the lawn, 30° C.): approximately 30 mm | toxicity of DMDS in the gas state to OM101 (OM101 (ΔmetB,ΔmetF); gas state): not toxic | OD600 [8]: 2.4 and 1.8 | maximum amount of DMDS that allowed cell growth (C. glutamicum M2014 [9]; DMDS in mineral oil): 0.8% | Optical densities at 600 nm (C. glutamicum M2014 [9]; MF + Mineral Oil + 0.2% DMDS): 1.4 and 1.2 | Optical densities at 600 nm (C. glutamicum M2014 [9]; MF + Mineral Oil + 0.4% DMDS): 1.5 and 1.3 | Optical densities at 600 nm (C. glutamicum M2014 [9]; MF + Mineral Oil + 0.8% DMDS): 1.4 and 1.7 | Optical densities at 600 nm (C. glutamicum M2014 [9]; MF + Mineral Oil + 1.2% DMDS): 0.0 | Optical densities at 600 nm (C. glutamicum M2014 [10]; M2014, DMDS 0.1%, XAD4, 24 hours at 30° C.): 4.4 and 4.3 | Optical densities at 600 nm (C. glutamicum M2014 [10]; M2014, DMDS 0.1%, XAD4, 42 hours at 30° C.): 6.6 | Optical densities at 600 nm (C. glutamicum M2014 [10]; M2014, DMDS 0.2%, XAD4, 24 hours at 30° C.): 4.0 and 4.2 | Optical densities at 600 nm (C. glutamicum M2014 [10]; M2014, DMDS 0.2%, XAD4, 42 hours at 30° C.): 6.9 | OD600 (C. glutamicum M2014 [10]; M2014, DMDS 0.2%, XAD4, 60 hours at 30° C.): 4.5 and 3.6 | Optical densities at 600 nm (C. glutamicum M2014 [10]; M2014, DMDS 0.3%, XAD4, 24 hours at 30° C.): 3.8 and 3.5 | Optical densities at 600 nm (C. glutamicum M2014 [10]; M2014, DMDS 0.3%, XAD4, 42 hours at 30° C.): 7.3 | Optical densities at 600 nm (C. glutamicum M2014 [10]; M2014, DMDS 0.4%, XAD4, 24 hours at 30° C.): 1.3 and 2.3 | Optical densities at 600 nm (C. glutamicum M2014 [10]; M2014, DMDS 0.4%, XAD4, 42 hours at 30° C.): 7.3 | Optical densities at 600 nm (C. glutamicum M2014 [10]; M2014, DMDS 0.5%, XAD4, 42 hours at 30° C.): 5.5 | maximum amount of DMDS that allowed cell growth (C. glutamicum M2014 [10]; M2014, DMDS with Amberlite XAD4): 0.4% | increase of the amount of DMDS that can be added before toxicity is observed (C. glutamicum M2014 [10]; in the presence of Amberlite XAD4 versus direct addition): 5 fold | Optical densities at 600 nm ([11]; DMDS 0.1%, XAD4, 24 hours at 30° C.): 3.0 and 3.3 | Optical densities at 600 nm ([11]; DMDS 0.1%, XAD4, 42 hours at 30° C.): 6.3 | Optical densities at 600 nm ([11]; DMDS 0.2%, XAD4, 24 hours at 30° C.): 1.7 and 3.4 | Optical densities at 600 nm ([11]; DMDS 0.2%, XAD4, 42 hours at 30° C.): 6.5 | OD600 ([11]; DMDS 0.2%, XAD4, 60 hours at 30° C.): 1.2 and 1.3 | Optical densities at 600 nm ([11]; DMDS 0.3%, XAD4, 24 hours at 30° C.): 3.9 and 2.1 | Optical densities at 600 nm ([11]; DMDS 0.3%, XAD4, 42 hours at 30° C.): 4.9 | Optical densities at 600 nm ([11]; DMDS 0.4%, XAD4, 24 hours at 30° C.): 1.5 and 1.6 | Optical densities at 600 nm ([11]; DMDS 0.4%, XAD4, 42 hours at 30° C.): 3.6 | Optical densities at 600 nm ([11]; DMDS 0.5%, XAD4, 24 hours at 30° C.): 0.1 | Optical densities at 600 nm ([11]; DMDS 0.5%, XAD4, 42 hours at 30° C.): 1.6 | maximum amount of DMDS that allowed cell growth ([11]; DMDS with Amberlite XAD4): 0.4% | Optical densities at 600 nm ([12]; MF + Canola Oil + 0.2% DMDS): 1.9 and 1.7 | Optical densities at 600 nm ([12]; MF + Canola Oil + 0.4% DMDS): 1.1 and 1.3 | Optical densities at 600 nm ([12]; MF + Canola Oil + 0.8% DMDS): 0.0 | OD600 [13]: 0.0 | Optical densities at 600 nm (C. glutamicum M2014 [14]): 1.5 and 1.4
